# Measurements reported in patent publication US6638938B1, “Method for preventing tissue injury from hypoxia” (Cell Therapeutics, Inc., priority 1993, dated 2003).
# Tests used:
# [1] = system: mRNA for IL-1β, IL-6, TNFα and IFN-γ; test: cytokine mRNA by PCR in murine hemorrhage and resuscitation model; type: in vivo, Balb/C mice
# Description: This example illustrates a study of Lisofylline in a murine hemorrhage and resuscitation model. Male Balb/C mice, 8-12 weeks of age, were obtained from Harlan-Sprague Dawley (Indianapolis, Ind.). The animals were kept on a 12 hour light/dark cycle with free access to food and water. With this model, 30% of the calculated blood volume (approximately 0.55 ml for a 20 gram mouse) was withdrawn from a methoxyflurane anesthetized mouse by cardiac puncture over a 60-second period. The blood was collected into a heparinized syringe (5 units heparin), kept at 37° C. for one hour, then reinfused into the mouse through a retroorbital plexus injection. Using this method, one is able to resuscitate all hemorrhaged mice without complication. The total period of methoxyflurane anesthesia is less than 2 minutes in all cases. The mortality rate with this hemorrhage protocol is approximately 12%, with all deaths occurring over the 24 hours post hemorrhage, and most deaths occurring within the one hour post hemorrhage.
# Mice were treated with 100 mg/kg Lisofylline in 0.2 ml PBS and given initially i.v., by retroorbital injection, then i.p. every 8 hours for a total of 9 doses. In hemorrhaged mice, the Lisofylline in PBS was added to the shed blood, and then given retroorbitally with the blood during the resuscitation phase. In hemorrhaged Balb/C mice (n=3), sacrificed by exsanguination 5 minutes after receiving Lisofylline with the blood used for resuscitation, serum levels of Lisofylline were 44±6 μg/ml.
# Intraparenchymal pulmonary mononuclear cells were isolated by collagenase digestion and Percoll® gradient purification using techniques previously described. Briefly, after the mouse was killed by cervical dislocation or exsanguination, the chest was opened and the lung vascular bed was flushed by injecting 3-5 ml of chilled (4° C.) PBS into the right ventricle. The lungs were then excised, avoiding the paratracheal lymph nodes, and washed twice in RPMI 1640. The lungs were minced finely, and the tissue pieces placed in RPMI 1640 with 5% FCS, penicillin/streptomycin, 10 mM HEPES, 50 μM 2-ME, 20 mM L-glutamine, containing 20 U/ml collagenase and 1 μg/ml DNase. Following incubation for 60 minutes at 37° C., any remaining intact tissue was disrupted by passage through a 21 gauge needle. Tissue fragments and the majority of dead cells were removed by rapid filtration through a glass wool column, and cells collected by centrifugation. The cell pellet was suspended in 4 ml of 80% Percoll® (Pharmacia, Uppsala, Sweden) and 4 ml of 40% Percoll® was then layered on. After centrifugation at 600 g for 20 minutes at 15° C., the cells at the interface were collected, washed in RPMI 1640, and counted. Viability, as determined by trypan blue exclusion, was consistently greater than 98%.
# Peripheral blood mononuclear cells were isolated from heparinized blood which had been diluted 2:1 with PBS, pH 7.3, and layered onto a gradient containing 4 ml Lympholyte M (Accurate Chemicals, San Diego, Calif.). After centrifugation at 600 g for 20 minutes at 15° C., the cells at the interface were collected, washed in RPMI 1640, and counted. Viability, as determined by trypan blue exclusion, was consistently greater than 98%. Plasma was collected following centrifugation of bloodto whichhad beenadded 10^−3 M EDTA.
# mRNA was isolated using oligo dT cellulose minicolumns (Invitrogen San Diego, Calif.). cDNA was synthesized from the mRNA of 100,000 cells for all cell populations except alveolar macrophages (where 20,000 cells were used) using Moloney murine leukemia virus reverse transcriptase and random hexamer oligonucleotides according to the procedure of Kawasaki (PCR Protocols: A Guide to Methods and Applications, Innis et al., eds, pp. 21-27, Academic Press, New York, 1991). […]
# human neutrophils = test: neutrophil adherence to nylon fiber; type: cell-based
# Excerpt: Human recombinant interleukin-1α (IL-1) was obtained from Hoffmann-LaRoche, Inc. (Nutley, N.J.), frozen inaliquots and thawed daily for use. Ketamine hydrochloride was obtained from Parke-Davis (Morris Plains, N.J.), xylazine from Haver (New York, N.J.), ^125I labeled bovine serum albumin (BSA) from ICN Radiochemicals (Irvine, Calif.), and heparin sodium from Elkins-Sinn, Inc. (Cherry Hill, N.J.). All other reagents were purchased from Sigma Chemical Co. (St. Louis, Mo.). Neutrophils were purified from human blood by well described methods. Venous blood was anticoagulated with heparin and the cellular elements were separated from platelet-rich plasma by centrifugation. Cell pellets were resuspended in platelet-poor plasma and diluted 1:4 with 6% dextran (Pharmacia Fine Chemicals, Piscataway, N.J.) in saline. Red cells were separated from leukocytes by sedimentation. Leukocyte-rich supernatants were then aspirated, underlain with Ficoll-Hypaque (Pharmacia Fine Chemicals), and centrifuged at 275×g to separate neutrophils and monocytes. Sedimented neutrophils were resuspended in Hank's balanced salt solution (HBSS). These preparations contained 94 to 96% neutrophils and 4 to 6% monocytes. All values were compared by analysis of variance and corrected by post hoc Student t tests for differences between groups. A p value of <0.05 was considered significant.
# Neutrophil adherence was measured using the nylon fiber technique. Briefly, 50 mg of scrubbed nylon fiber (3-XXX), 3.81 cm type 200 (Travenol Laboratories, Deerfield, Ill.), was packed into the distal 10 mm of the barrels of tuberculin syringes. Ficoll-Hypaque-purified human neutrophils (1×10^7 cells) in plasma (total volume, 0.25 ml) with and without Lisofylline were then placed in the top of the nylon fiber column which was maintained at 37° C. After 90 sec, the plunger was inserted and the samples were eluted. Eluted neutrophils were counted by hemocytometer, and percentages of neutrophils adhering to the nylon fiber were calculated by the following formula: [formula]
# Neutrophil chemotactic activity was determined by Boyden chamber assay and quantitated as the number of migrating PMN/5HPF using zymosan-activated serum (ZAS) as the chemoattractant (Repine et al., J. Reticuloendo. Soc. 24:217, 1978). Neutrophil adherence was assessed by quantitating the percentage of neutrophils adhering to nylon fibers following addition of phorbol myristate acetate (PMA 10-^6M, Sigma) (Rasp et al., J. Reticuloendo. Soc. 25:101, 1979). Neutrophil superoxide production was determined by quantitating superoxide dismutase inhibitable reduction of cytochrome c in response to PMA (10^−6 M) (Berger et al., J. Infectious Dis. 149:413, 1984).
structure (smiles),measurement,setting,value
"C[C@@H](O)CCCCn1c(=O)c2c(ncn2C)n(C)c1=O [Lisofylline, 1-R-(5-hydroxyhexyl)-3,7-dimethylxanthine]",murine lung cytokine levels (FIG. 5),"[1]; determined by PCR, following hemorrhage and resuscitation",significantly decreased
same,lung cytokine concentrations (FIG. 7),"[1]; following hemorrhage shock in mice, model of ARDS",significantly decreased
same,TNFα mRNA levels in PBMC,"[1]; hemorrhage/resuscitated mice treated, versus untreated, 3 days",significantly decreased
same,amounts of mRNA for IL-1β and TNF among cells isolated from BAL samples,"[1]; hemorrhaged/resuscitated mice treated, versus normal untreated or normal treated mice",not different
same,"levels of mRNA for IL-1β, IL-6, TNFα and IFN-γ among intraparenchymal pulmonary mononuclear cells","[1]; hemorrhaged/resuscitated mice treated, versus untreated, 3 days",significantly decreased
same,"mRNA levels in PBMC for IL-1β, IL-6, TNFα and IFN-γ",[1]; treatment after hemorrhage,did not affect
same,Neutrophil Adherence,human neutrophils; Neutrophils + PMA + Lisofylline 0.7 μM,35.8 ± 4.52 (4)δ %
same,Neutrophil Adherence,human neutrophils; Neutrophils + PMA + Lisofylline 7 μM,38.8 ± 1.38 (4)δ %
same,Neutrophil Adherence,human neutrophils; Neutrophils + PMA + Lisofylline 70 μM,25.6 ± 2.78 (5)δ %
same,Neutrophil Adherence,human neutrophils; Neutrophils + PMA + Lisofylline 700 μM,26.6 ± 6.03 (5)δ %
same,stimulated human neutrophil adherence,"human neutrophils; PMA 10^-6 M, in vitro",reduced
